# Experimental data from paper PMC5564600 (Oncotarget, 2017).
# Read-outs that look alike come from different tables or passages of the source.
# Columns and labels:
# Assay in all cases: biochemical
# Assay type in all cases: binding
# panel of 442 kinases [1] = biological target: T1, panel of 442 kinases (Homo sapiens, UniProt Q08345); details: DDR1; for remaining activity at 1 µM: read-out: % of control at 1 µM
# T1 construct: purchased Ambit Biosciences (scanMAXX KINOMEscan)
# panel of 442 kinases [2] = biological target: T2, panel of 442 kinases (Homo sapiens, UniProt P31749); details: AKT1; for remaining activity at 1 µM: read-out: % of control at 1 µM
# T2 construct: purchased Ambit Biosciences (scanMAXX KINOMEscan)
# panel of 442 kinases [3] = biological target: T3, panel of 442 kinases (Homo sapiens, UniProt Q13233); details: kinase MAP3K1; for remaining activity at 1 µM: read-out: % of control at 1 µM
# T3 construct: purchased Ambit Biosciences (scanMAXX KINOMEscan)
# panel of 442 kinases [4] = biological target: T4, panel of 442 kinases (Homo sapiens, UniProt O76039); details: CDKL5; for remaining activity at 1 µM: read-out: % of control at 1 µM
# T4 construct: purchased Ambit Biosciences (scanMAXX KINOMEscan)
# T4 sequence (O76039 1-960): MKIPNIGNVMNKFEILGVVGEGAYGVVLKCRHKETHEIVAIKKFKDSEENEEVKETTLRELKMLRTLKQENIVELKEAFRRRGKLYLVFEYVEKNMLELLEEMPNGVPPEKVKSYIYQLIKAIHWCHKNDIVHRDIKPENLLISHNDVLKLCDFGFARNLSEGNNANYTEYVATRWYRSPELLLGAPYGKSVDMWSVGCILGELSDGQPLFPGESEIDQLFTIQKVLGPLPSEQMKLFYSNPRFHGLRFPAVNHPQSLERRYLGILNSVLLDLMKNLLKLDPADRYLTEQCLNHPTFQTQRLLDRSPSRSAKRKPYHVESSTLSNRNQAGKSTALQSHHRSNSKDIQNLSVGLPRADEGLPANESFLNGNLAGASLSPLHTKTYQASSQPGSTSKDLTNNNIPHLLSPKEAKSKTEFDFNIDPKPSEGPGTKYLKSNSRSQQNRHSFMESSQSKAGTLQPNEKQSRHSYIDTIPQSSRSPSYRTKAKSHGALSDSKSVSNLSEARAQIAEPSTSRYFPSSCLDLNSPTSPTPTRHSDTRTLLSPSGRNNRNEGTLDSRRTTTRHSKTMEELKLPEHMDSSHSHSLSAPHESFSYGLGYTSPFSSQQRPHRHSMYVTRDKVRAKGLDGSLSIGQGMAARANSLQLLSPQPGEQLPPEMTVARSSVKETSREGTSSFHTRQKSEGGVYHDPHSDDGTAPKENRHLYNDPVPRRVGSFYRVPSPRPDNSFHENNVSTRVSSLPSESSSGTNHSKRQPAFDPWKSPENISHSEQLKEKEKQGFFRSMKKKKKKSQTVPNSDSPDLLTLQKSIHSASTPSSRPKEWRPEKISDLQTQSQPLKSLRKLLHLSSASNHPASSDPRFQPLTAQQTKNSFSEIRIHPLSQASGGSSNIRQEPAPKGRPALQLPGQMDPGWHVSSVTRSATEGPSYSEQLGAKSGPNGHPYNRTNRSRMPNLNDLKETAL
# panel of 442 kinases [5] = biological target: T5, panel of 442 kinases (Homo sapiens, UniProt Q9BVS4); details: kinase RIOK2; for remaining activity at 1 µM: read-out: RIOK2 (% of control at 1 µM)
# T5 construct: purchased Ambit Biosciences (scanMAXX KINOMEscan)
# panel of 442 kinases [6] = biological target: T6, panel of 442 kinases (Homo sapiens, UniProt P00519, T315I); details: for remaining activity at 1 µM: read-out: % of control at 1 µM; for remaining activity at 10 µM: read-out: % of control at 10 µM
# T6 construct: purchased Ambit Biosciences (scanMAXX KINOMEscan)
# panel of 442 kinases [7] = biological target: T7, panel of 442 kinases (Homo sapiens, UniProt P19525); details: kinase PRKR; for remaining activity at 1 µM: read-out: PRKR (% of control at 1 µM)
# T7 construct: purchased Ambit Biosciences (scanMAXX KINOMEscan)
# panel of 442 kinases [8] = biological target: T8, panel of 442 kinases (Homo sapiens, UniProt P29597)
# T8 construct: purchased Ambit Biosciences (scanMAXX KINOMEscan)
# panel of 442 kinases [9] = biological target: T9, panel of 442 kinases (Homo sapiens, UniProt Q13131); details: AMPK-alpha1; for remaining activity at 1 µM: read-out: % of control at 1 µM
# T9 construct: purchased Ambit Biosciences (scanMAXX KINOMEscan)
# panel of 442 kinases [10] = biological target: T10, panel of 442 kinases (Homo sapiens, UniProt Q15303); details: ERBB4; for remaining activity at 1 µM: read-out: % of control at 1 µM
# T10 construct: purchased Ambit Biosciences (scanMAXX KINOMEscan)
# panel of 442 kinases [11] = biological target: T11, panel of 442 kinases (Homo sapiens, UniProt P36896); details: ACVR1B; for remaining activity at 1 µM: read-out: % of control at 1 µM
# T11 construct: purchased Ambit Biosciences (scanMAXX KINOMEscan)
# T11 sequence (P36896 24-505): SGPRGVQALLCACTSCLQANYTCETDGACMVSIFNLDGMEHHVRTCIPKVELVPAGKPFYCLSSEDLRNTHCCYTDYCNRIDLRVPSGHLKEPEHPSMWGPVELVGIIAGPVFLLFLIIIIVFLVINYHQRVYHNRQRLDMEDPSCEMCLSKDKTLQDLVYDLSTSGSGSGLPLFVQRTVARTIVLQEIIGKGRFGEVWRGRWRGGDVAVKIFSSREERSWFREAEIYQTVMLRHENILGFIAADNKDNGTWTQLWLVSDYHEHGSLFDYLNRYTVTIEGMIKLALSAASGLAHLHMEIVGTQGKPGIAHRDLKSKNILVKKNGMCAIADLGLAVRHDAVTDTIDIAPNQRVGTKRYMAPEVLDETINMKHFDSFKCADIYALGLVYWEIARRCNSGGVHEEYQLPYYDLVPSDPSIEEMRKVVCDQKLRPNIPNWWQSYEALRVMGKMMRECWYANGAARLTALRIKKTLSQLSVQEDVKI
# panel of 442 kinases [12] = biological target: T12, panel of 442 kinases (Homo sapiens, UniProt P51957); details: kinase NEK4; for remaining activity at 1 µM: read-out: % of control at 1 µM
# T12 construct: purchased Ambit Biosciences (scanMAXX KINOMEscan)
# panel of 442 kinases [13] = biological target: T13, panel of 442 kinases (Homo sapiens, UniProt Q9Y2H1); details: kinase NDR2; for remaining activity at 1 µM: read-out: % of control at 1 µM
# T13 construct: purchased Ambit Biosciences (scanMAXX KINOMEscan)
# panel of 442 kinases [14] = biological target: T14, panel of 442 kinases (Homo sapiens, UniProt P42338); details: kinase PIK3CB; 1 µM; read-out: % of control at 1 µM
# T14 construct: purchased Ambit Biosciences (scanMAXX KINOMEscan)
# [15] = 10 µM, read-out: % of control at 10 µM
# [16] = kinase TYK2(JH1domain-catalytic), read-out: TYK2(JH1domain-catalytic) (% of control at 1 µM)
# [17] = kinase TYK2(JH2domain-pseudokinase), read-out: TYK2(JH2domain-pseudokinase) (% of control at 1 µM)
# T14 sequence (P42338 whole entry): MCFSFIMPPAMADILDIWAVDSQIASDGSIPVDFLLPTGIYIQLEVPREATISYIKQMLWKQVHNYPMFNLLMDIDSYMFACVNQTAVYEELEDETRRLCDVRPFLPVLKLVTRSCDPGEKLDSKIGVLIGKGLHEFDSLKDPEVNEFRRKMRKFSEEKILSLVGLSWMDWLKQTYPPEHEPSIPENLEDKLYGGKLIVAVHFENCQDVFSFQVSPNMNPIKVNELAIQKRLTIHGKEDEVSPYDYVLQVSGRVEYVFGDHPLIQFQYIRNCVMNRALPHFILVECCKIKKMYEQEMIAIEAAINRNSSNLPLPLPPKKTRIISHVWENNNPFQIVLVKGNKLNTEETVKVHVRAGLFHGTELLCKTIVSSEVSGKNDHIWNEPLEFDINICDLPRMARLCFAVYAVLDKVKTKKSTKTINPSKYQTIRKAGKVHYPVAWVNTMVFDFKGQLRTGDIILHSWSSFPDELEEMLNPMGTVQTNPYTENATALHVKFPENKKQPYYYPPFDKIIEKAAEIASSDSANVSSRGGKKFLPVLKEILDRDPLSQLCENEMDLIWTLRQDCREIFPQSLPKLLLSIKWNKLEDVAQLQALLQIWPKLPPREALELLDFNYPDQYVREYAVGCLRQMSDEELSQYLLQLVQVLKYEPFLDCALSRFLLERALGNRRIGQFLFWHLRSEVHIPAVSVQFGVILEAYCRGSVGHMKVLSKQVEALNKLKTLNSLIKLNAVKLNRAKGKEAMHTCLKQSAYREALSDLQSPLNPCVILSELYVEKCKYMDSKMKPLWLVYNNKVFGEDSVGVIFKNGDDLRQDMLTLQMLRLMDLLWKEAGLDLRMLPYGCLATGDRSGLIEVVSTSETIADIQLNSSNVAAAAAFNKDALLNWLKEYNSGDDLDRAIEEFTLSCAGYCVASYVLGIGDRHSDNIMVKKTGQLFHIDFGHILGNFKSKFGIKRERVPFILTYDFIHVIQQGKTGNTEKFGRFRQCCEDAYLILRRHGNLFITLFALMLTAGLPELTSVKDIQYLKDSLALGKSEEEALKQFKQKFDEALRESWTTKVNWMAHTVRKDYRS
# T5 sequence (Q9BVS4 whole entry): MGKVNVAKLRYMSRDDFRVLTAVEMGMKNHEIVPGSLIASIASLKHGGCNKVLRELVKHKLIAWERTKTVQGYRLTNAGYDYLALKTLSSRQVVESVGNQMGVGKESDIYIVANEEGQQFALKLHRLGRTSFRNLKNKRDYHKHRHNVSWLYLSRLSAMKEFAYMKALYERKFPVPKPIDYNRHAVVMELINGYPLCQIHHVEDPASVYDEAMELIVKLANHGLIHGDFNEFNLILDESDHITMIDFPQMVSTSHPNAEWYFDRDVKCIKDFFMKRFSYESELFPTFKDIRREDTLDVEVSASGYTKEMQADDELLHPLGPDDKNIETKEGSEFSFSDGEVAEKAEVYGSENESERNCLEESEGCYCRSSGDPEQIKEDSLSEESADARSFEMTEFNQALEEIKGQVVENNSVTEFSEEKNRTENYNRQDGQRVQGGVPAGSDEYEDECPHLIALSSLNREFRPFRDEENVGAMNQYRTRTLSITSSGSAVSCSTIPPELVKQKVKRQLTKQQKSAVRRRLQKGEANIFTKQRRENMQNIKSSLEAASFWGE
# T9 sequence (Q13131 whole entry): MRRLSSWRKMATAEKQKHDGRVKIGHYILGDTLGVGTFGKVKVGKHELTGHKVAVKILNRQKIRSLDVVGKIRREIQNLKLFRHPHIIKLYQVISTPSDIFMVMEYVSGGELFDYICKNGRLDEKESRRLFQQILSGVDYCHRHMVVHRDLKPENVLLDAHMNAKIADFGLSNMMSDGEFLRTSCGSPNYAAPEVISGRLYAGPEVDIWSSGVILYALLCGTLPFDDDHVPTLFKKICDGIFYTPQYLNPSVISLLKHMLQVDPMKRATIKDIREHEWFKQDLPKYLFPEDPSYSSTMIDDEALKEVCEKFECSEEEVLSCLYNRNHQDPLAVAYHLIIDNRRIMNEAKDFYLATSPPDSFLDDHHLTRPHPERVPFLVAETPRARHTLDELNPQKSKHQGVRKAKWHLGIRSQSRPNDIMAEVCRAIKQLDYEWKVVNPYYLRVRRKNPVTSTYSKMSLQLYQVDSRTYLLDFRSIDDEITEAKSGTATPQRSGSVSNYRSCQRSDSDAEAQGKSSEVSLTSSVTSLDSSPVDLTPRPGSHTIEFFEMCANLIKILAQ
# T10 sequence (Q15303 26-1308): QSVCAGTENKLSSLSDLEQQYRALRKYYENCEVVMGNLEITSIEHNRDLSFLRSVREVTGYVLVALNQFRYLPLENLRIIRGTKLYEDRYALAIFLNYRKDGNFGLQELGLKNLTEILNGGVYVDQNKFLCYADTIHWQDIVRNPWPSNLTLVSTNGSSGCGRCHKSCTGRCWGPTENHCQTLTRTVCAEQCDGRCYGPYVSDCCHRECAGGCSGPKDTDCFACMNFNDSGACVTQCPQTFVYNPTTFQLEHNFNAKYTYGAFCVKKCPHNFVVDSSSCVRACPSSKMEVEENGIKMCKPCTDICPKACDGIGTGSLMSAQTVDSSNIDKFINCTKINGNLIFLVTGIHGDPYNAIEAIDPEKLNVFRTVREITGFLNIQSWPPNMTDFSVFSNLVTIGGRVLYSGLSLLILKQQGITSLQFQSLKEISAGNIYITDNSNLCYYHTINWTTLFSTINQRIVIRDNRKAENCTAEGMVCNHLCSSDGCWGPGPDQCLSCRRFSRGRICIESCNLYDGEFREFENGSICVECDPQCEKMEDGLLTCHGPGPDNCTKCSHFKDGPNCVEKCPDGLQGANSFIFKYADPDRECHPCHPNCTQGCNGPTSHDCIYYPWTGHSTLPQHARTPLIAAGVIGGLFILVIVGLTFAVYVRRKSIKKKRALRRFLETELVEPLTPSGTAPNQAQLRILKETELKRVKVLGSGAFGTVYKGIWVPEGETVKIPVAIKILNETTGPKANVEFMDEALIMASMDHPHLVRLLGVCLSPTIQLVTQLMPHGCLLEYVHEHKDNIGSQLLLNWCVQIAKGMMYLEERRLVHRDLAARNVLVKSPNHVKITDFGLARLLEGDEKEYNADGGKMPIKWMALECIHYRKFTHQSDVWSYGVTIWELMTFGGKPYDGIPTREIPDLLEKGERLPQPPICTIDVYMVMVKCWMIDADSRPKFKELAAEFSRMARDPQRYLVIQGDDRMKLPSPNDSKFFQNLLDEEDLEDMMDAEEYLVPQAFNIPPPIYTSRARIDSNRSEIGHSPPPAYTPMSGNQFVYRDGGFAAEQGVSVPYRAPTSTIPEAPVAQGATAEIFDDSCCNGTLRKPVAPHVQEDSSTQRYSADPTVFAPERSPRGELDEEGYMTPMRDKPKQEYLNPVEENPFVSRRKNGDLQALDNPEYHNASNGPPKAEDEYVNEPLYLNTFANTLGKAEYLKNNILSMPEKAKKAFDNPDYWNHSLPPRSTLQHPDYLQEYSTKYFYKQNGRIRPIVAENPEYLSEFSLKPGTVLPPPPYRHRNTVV
# T1 sequence (Q08345 19-913): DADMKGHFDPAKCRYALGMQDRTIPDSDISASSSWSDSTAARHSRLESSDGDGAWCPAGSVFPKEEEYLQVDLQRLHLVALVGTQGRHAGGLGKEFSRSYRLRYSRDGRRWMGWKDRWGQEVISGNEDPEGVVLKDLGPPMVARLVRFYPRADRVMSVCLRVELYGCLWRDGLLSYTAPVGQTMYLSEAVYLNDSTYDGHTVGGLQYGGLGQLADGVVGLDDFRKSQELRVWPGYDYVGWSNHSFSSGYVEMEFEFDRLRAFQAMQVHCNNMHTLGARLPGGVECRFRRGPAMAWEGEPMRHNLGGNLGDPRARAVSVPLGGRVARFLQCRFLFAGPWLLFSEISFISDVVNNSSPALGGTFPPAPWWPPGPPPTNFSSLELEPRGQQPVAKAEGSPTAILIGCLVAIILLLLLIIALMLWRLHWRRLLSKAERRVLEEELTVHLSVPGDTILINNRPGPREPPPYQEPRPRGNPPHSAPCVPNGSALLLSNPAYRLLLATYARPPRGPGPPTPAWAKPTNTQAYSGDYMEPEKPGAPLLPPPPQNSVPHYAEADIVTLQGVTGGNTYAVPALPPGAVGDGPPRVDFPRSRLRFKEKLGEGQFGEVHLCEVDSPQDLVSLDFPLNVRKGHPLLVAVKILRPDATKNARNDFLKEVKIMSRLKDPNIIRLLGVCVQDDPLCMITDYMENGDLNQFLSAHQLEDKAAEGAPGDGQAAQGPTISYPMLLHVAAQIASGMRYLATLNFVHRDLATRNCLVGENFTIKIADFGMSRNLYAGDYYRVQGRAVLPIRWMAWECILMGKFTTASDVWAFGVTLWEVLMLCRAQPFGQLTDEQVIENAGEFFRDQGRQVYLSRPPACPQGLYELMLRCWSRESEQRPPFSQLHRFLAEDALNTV
# T13 sequence (Q9Y2H1 whole entry): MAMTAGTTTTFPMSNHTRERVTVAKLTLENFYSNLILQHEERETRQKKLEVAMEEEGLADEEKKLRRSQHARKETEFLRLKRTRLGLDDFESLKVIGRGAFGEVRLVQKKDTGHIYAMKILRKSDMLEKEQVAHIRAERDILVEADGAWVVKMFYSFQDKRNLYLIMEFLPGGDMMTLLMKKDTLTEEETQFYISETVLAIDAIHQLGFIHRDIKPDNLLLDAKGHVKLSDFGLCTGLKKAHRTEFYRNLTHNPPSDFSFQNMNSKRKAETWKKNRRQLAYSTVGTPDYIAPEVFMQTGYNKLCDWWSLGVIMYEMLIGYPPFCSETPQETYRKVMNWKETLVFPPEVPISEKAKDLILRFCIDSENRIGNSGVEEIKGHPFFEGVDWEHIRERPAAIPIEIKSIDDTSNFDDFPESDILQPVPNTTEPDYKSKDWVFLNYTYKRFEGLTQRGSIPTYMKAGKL
Structure (SMILES),remaining activity at 1 µM (panel of 442 kinases [1]),remaining activity at 1 µM (panel of 442 kinases [2]),remaining activity at 1 µM (panel of 442 kinases [3]),remaining activity at 1 µM (panel of 442 kinases [4]),remaining activity at 1 µM (panel of 442 kinases [5]),remaining activity at 1 µM (panel of 442 kinases [6]; ABL1(T315I)-nonphosphorylated),remaining activity at 1 µM (panel of 442 kinases [6]; ABL1(T315I)-phosphorylated),remaining activity at 1 µM (panel of 442 kinases [7]),remaining activity at 1 µM (panel of 442 kinases [8]; [16]),remaining activity at 1 µM (panel of 442 kinases [8]; [17]),remaining activity at 1 µM (panel of 442 kinases [9]),remaining activity at 1 µM (panel of 442 kinases [10]),remaining activity at 1 µM (panel of 442 kinases [11]),remaining activity at 1 µM (panel of 442 kinases [12]),remaining activity at 1 µM (panel of 442 kinases [13]),remaining activity at 1 µM (panel of 442 kinases [14]),further results
Nc1cc(C(F)(F)F)c(-c2cc(N3CCOCC3)nc(N3CCOCC3)n2)cn1 [Buparlisib],100%,94%,100%,88%,100%,94%,73%,88%,100%,32%,96%,69%,87%,77%,90%,–,"remaining activity at 10 µM (panel of 442 kinases [1]; [15]): 92%; remaining activity at 10 µM (panel of 442 kinases [2]; [15]): 100%; remaining activity at 10 µM (panel of 442 kinases [3]; [15]): 100%; remaining activity at 10 µM (panel of 442 kinases [4]; [15]): 100%; remaining activity at 10 µM (panel of 442 kinases [5]; 10 µM, read-out: RIOK2 (% of control at 10 µM)): 100%; remaining activity at 10 µM (panel of 442 kinases [6]; ABL1(T315I)-nonphosphorylated): 78%; remaining activity at 10 µM (panel of 442 kinases [6]; ABL1(T315I)-phosphorylated): 100%; remaining activity at 10 µM (panel of 442 kinases [7]; 10 µM, read-out: PRKR (% of control at 10 µM)): 100%; remaining activity at 10 µM (panel of 442 kinases [8]; kinase TYK2(JH1domain-catalytic), read-out: TYK2(JH1domain-catalytic) (% of control at 10 µM)): 100%; remaining activity at 10 µM (panel of 442 kinases [8]; kinase TYK2(JH2domain-pseudokinase), read-out: TYK2(JH2domain-pseudokinase) (% of control at 10 µM)): 22%; remaining activity at 10 µM (panel of 442 kinases [9]; [15]): 100%; remaining activity at 10 µM (panel of 442 kinases [10]; [15]): 100%; remaining activity at 10 µM (panel of 442 kinases [11]; [15]): 83%; remaining activity at 10 µM (panel of 442 kinases [12]; [15]): 99%; remaining activity at 10 µM (panel of 442 kinases [13]; [15]): 100%"
"Cn1c(=O)n(-c2ccc(C(C)(C)C#N)cc2)c2c3cc(-c4cnc5ccccc5c4)ccc3ncc21 [Dactolisib, 2-methyl-2-[4-(3-methyl-2-oxo-8-quinolin-3-yl-2,3-dihydroimidazo[4,5-c]quinolin-1-yl)-phenyl] propionitrile]",100%,100%,100%,100%,65%,58%,–,95%,26%,65%,97%,100%,100%,88%,100%,64%,–
COc1ncc(-c2ccc3nccc(-c4ccnnc4)c3c2)cc1NS(=O)(=O)c1ccc(F)cc1F [Omipalisib],100%,59%,100%,100%,100%,98%,81%,84%,100%,78%,100%,100%,100%,100%,100%,0%,–
"FC(F)c1nc2ccccc2n1-c1nc(N2CCOCC2)nc(N2CCOCC2)n1 [ZSTK474, 2-(difluoromethyl)-1-[4,6-di(4-morpholinyl)-1,3,5-triazin-2-yl]-1H-benzimidazole]",95%,100%,100%,100%,39%,50%,100%,93%,93%,97%,100%,100%,60%,100%,100%,0%,–
